Measured values taken from patent US10745400B2, “Inhibition of BMP signaling, compounds, compositions and uses thereof” (Vanderbilt University, priority 2018, dated 2020).

Assays:
[1] = molecular target: ALK1/ACVRL1 (Homo sapiens, UniProt P37023); experiment: Kinase assay (33P-ATP filter-binding), ALK1; type: biochemical; settings: read-out: Kinase Selectivity ALK1/ACVRL1
Procedure: (§1) The kinase assays were carried out briefly as follows. Substrate was prepared in Base Reaction Buffer (20 mM Hepes (pH 7.5), 10 mM MgCl2, 1 mM EGTA, 0.02% Brij35, 0.02 mg/ml BSA, 0.1 mM Na3VO4, 2 mM DTT, 1% DMSO). The indicated kinases was delivered into the substrate solution and allowed to gently mix. Next, the specific compound was delivered in DMSO into the kinase mixture by Acoustic technology (Echo550; nanoliter range), and allowed to incubate for 20 minutes at room temperature. Next, ^33P-ATP was delivered into the reaction mixture to initiate the reaction and allowed to incubate at room temperature. After 2 hours, the reactions were spotted onto P81 ion exchange paper and the kinase activity is detected by the filter-binding method.

[2] = molecular target: T1, ALK4 (Homo sapiens, UniProt P36896); experiment: Kinase assay (33P-ATP filter-binding), ALK4; type: biochemical; settings: read-out: Kinase Selectivity ALK4
T1 sequence (P36896 24-505): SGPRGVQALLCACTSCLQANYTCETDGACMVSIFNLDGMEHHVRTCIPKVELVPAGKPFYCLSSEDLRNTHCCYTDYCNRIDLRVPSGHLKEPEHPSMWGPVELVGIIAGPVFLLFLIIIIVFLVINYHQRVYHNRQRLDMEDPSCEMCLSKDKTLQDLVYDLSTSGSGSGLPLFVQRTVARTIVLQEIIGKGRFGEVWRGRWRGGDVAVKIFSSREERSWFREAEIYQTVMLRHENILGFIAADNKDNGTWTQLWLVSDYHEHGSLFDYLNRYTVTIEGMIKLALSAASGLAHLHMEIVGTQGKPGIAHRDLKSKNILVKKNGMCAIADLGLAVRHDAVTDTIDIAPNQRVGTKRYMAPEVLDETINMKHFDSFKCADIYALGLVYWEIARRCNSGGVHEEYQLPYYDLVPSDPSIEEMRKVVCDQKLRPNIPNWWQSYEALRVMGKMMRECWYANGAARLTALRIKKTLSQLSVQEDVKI
Procedure: as §1

[3] = Intrinsic clearance, human; type: in vitro ADME; settings: for CLint scaled: human
[4] = molecular target: ALK6 (Homo sapiens, UniProt O00238); experiment: Kinase assay (33P-ATP filter-binding), ALK6; type: biochemical; settings: read-out: Kinase Selectivity ALK6
Chain of ALK6 (O00238 14-502): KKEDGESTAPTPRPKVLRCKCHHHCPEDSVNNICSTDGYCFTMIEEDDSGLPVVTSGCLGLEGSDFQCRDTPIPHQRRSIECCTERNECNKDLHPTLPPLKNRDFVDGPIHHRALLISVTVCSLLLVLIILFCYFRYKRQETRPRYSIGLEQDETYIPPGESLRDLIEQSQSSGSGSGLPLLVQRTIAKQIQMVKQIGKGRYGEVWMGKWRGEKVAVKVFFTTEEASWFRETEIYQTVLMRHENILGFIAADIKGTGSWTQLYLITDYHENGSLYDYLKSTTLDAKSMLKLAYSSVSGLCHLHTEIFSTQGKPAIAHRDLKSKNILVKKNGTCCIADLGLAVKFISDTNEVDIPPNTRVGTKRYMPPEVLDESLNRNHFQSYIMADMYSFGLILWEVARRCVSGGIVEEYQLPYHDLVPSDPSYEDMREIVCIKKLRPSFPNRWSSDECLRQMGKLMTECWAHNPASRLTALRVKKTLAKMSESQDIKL
Procedure: as §1

[5] = Intrinsic clearance, mouse; type: in vitro ADME; settings: for CLint scaled: mouse
[6] = molecular target: T2, ALK5 (Homo sapiens, UniProt P36897); experiment: Kinase assay (33P-ATP filter-binding), ALK5; type: biochemical; settings: read-out: Kinase Selectivity ALK5
T2 sequence (P36897 34-503): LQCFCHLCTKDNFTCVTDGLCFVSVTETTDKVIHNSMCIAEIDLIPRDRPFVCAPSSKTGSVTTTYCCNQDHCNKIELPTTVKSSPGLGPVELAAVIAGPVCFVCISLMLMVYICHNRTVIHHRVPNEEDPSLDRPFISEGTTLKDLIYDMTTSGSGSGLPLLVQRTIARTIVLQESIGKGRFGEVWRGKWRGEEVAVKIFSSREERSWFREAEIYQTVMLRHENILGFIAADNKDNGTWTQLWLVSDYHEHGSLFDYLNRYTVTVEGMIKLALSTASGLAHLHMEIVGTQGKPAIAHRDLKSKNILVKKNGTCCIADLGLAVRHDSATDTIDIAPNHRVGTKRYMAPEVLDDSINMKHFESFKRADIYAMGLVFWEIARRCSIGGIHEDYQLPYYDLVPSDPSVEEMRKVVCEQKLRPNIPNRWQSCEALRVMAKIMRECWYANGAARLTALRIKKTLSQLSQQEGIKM
Procedure: as §1

[7] = Protein binding, human; type: in vitro ADME
[8] = molecular target: KDR (Homo sapiens, UniProt P35968); experiment: Kinase assay (33P-ATP filter-binding), KDR; type: biochemical; settings: read-out: Kinase Selectivity KDR
Chain of KDR (P35968 20-1356, species assumed): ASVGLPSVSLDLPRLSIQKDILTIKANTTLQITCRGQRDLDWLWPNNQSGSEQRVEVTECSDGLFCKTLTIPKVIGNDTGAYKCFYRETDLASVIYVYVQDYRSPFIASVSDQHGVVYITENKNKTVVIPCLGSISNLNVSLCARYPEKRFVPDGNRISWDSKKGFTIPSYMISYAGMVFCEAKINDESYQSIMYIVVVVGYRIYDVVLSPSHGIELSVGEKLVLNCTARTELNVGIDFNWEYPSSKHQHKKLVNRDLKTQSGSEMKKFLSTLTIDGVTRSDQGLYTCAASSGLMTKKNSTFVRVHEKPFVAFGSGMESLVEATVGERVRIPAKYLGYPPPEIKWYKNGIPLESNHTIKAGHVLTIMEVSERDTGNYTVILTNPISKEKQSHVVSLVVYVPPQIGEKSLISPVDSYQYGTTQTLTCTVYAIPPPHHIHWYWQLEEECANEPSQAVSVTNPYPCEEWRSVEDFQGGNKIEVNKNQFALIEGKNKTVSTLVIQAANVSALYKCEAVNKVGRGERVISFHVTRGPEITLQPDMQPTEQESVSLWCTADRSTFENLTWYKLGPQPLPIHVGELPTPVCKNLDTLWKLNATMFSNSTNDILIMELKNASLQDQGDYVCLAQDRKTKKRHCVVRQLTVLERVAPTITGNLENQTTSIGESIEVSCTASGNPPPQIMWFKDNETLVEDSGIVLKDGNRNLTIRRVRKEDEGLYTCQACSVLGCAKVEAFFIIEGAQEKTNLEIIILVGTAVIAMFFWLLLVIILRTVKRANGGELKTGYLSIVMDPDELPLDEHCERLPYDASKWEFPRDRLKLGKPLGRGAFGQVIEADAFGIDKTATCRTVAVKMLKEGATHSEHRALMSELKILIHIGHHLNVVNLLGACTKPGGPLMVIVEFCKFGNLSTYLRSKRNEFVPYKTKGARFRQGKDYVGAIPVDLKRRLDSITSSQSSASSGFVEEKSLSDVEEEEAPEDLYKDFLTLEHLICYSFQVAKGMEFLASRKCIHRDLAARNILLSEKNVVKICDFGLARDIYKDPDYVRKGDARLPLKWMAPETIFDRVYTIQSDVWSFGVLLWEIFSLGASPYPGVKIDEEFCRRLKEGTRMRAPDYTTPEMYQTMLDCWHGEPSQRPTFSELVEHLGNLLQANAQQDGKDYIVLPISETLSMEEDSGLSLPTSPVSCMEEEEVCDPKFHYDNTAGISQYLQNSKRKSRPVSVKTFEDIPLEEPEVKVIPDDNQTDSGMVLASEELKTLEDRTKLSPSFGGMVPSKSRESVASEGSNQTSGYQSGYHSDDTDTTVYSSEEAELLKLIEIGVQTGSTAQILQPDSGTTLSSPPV
Procedure: as §1

[9] = molecular target: T3, BMPR2 (Homo sapiens, UniProt Q13873); experiment: Kinase assay (33P-ATP filter-binding), BMPR2; type: biochemical; settings: read-out: Kinase Selectivity BMPR2
T3 sequence (Q13873 27-1038): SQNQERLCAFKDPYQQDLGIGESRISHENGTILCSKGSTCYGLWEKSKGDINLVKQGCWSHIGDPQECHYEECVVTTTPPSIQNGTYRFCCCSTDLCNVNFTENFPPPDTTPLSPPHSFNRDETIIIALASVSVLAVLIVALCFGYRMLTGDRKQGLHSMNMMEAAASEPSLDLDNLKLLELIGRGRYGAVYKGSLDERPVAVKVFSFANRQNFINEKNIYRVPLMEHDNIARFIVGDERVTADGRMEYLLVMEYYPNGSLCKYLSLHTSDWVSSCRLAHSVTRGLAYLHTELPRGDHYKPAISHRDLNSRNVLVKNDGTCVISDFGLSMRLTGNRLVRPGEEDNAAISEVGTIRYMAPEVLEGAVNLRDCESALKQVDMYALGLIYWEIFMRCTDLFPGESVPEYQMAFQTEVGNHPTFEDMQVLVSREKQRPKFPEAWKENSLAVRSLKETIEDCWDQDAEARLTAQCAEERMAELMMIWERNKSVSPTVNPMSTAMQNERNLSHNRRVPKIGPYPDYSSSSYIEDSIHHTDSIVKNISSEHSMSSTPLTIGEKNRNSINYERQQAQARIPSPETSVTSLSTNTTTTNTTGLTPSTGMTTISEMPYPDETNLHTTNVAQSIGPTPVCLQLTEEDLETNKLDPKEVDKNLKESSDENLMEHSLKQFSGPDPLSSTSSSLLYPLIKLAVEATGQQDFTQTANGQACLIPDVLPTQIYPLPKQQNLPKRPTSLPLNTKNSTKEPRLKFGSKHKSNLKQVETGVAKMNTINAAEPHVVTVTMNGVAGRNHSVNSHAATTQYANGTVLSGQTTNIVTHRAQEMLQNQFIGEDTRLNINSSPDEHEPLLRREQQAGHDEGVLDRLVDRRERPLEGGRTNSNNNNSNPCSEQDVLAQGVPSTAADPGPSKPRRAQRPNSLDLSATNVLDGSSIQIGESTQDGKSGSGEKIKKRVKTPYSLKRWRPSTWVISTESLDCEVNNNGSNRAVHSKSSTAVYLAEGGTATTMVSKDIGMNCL
Procedure: as §1

[10] = molecular target: ALK3/BMPR1A (Homo sapiens, UniProt P36894); experiment: Kinase assay (33P-ATP filter-binding), ALK3; type: biochemical; settings: 1 mM; read-out: Kinase Selectivity ALK3/BMPR1A (1 mM)
Chain of ALK3/BMPR1A (P36894 24-532): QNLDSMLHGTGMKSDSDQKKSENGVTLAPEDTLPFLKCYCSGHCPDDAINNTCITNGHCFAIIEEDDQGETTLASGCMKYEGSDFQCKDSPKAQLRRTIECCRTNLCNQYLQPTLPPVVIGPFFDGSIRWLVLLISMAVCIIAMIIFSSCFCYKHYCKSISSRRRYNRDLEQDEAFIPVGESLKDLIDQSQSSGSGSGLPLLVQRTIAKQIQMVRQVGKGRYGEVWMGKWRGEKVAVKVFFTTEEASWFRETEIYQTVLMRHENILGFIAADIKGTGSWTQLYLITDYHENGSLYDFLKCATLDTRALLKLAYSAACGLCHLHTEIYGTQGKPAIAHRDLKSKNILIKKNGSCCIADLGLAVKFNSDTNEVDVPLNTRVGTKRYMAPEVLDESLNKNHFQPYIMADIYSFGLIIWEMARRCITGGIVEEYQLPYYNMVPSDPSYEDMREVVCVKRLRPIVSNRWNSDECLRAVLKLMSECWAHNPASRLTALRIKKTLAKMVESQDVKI
Procedure: as §1

[11] = Protein binding, mouse; type: in vitro ADME
[12] = system: BMP-responsive C2C12 mouse myoblast cells stimulated with BMP4; experiment: BMP4 cell assay (Id1 promoter-firefly luciferase reporter); type: cell-based; settings: BMP4 50 ng/mL, overnight
Procedure: The BMP4 cell assay were carried out briefly as follows. Stably transfected BMP-responsive C2C12 mouse myoblast cells (containing the Idl promoter-firefly luciferase reporter) were seeded in 96-well plates and incubated overnight with the compounds and BMP4 (50 ng/mL). The cells were then lysed, and cell extracts were then subjected to the firefly luciferase assay using Steady-Glo luciferase assay kit (Promega). The results were normalized to cell titers, as measured using Cell Titer-Glo luminescence assay (Promega). […] Relative activity was quantified by the ratio of firefly to Renilla luciferase activities using the dual luciferase assay kit (Promega).

[13] = molecular target: PDGFRb (Homo sapiens, UniProt P09619); experiment: Kinase assay (33P-ATP filter-binding), PDGFRb; type: biochemical; settings: read-out: Kinase Selectivity PDGFRb
Chain of PDGFRb (P09619 33-1106, species assumed): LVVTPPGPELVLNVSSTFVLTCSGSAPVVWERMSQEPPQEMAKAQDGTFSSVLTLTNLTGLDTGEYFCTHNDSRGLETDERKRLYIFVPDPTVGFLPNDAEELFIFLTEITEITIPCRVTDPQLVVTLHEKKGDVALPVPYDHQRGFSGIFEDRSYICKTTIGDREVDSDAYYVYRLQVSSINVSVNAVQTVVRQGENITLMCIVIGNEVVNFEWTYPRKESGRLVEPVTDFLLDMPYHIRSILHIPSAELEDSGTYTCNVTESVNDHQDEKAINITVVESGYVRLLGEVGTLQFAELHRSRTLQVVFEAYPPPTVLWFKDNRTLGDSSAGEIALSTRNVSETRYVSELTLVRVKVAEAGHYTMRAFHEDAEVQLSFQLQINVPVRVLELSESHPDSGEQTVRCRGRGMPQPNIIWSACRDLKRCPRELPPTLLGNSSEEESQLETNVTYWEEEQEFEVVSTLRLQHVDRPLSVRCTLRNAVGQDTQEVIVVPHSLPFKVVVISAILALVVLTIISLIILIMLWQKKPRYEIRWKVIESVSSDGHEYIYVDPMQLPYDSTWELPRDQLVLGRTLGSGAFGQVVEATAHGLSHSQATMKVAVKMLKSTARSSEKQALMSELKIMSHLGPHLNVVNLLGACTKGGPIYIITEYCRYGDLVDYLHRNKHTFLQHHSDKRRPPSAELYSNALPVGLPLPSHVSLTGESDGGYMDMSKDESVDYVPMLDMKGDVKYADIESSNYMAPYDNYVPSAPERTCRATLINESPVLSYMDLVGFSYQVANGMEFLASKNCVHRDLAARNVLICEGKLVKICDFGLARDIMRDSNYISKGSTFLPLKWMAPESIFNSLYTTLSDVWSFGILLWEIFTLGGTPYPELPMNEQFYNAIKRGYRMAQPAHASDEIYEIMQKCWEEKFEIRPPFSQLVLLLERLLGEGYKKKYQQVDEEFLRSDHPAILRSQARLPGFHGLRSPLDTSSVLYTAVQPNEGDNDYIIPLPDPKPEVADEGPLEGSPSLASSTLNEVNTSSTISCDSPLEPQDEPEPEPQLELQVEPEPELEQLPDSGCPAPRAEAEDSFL
Procedure: as §1

[14] = molecular target: TGFbR2 (Homo sapiens, UniProt P37173); experiment: Kinase assay (33P-ATP filter-binding), TGFbR2; type: biochemical; settings: read-out: Kinase Selectivity TGFbR2
Chain of TGFbR2 (P37173 23-567, species assumed): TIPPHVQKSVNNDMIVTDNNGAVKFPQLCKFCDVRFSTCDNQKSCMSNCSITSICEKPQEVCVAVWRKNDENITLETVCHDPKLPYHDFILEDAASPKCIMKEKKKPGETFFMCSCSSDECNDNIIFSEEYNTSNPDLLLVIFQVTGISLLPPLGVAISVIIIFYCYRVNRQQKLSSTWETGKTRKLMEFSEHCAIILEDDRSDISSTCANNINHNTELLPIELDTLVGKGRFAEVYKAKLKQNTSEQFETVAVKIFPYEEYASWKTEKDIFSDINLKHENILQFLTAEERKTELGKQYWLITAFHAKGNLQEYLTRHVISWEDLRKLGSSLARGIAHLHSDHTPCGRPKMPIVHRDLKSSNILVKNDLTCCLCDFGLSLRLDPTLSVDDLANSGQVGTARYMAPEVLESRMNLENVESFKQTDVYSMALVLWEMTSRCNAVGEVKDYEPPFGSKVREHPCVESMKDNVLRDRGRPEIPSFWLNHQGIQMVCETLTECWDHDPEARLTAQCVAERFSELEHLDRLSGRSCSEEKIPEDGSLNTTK
Procedure: as §1

[15] = CL-Hep, value in parentheses, read-out: Intrinsic Clearance Human (CL-Hep)

Chain of ALK1/ACVRL1 (P37023 22-503): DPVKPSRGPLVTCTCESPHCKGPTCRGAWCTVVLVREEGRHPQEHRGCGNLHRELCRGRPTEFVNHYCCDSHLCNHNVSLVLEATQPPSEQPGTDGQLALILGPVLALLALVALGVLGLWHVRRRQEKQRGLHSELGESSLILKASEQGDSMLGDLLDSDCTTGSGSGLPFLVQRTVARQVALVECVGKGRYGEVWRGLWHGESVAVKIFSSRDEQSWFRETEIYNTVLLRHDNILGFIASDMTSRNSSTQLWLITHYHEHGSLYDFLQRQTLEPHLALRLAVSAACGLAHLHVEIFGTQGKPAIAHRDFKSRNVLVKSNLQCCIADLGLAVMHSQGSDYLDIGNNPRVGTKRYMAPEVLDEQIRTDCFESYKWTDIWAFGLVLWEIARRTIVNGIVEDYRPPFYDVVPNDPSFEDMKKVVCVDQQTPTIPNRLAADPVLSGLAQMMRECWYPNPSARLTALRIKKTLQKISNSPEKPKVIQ

| IC50 [1] | IC50 [2] | CLint scaled [3, 15] | CLint scaled ([3]; read-out: Intrinsic Clearance Human) | IC50 [4] | CLint scaled ([5]; CL-Hep, value in parentheses, read-out: Intrinsic Clearance Mouse (CL-Hep)) | CLint scaled ([5]; read-out: Intrinsic Clearance Mouse) | IC50 [6] | Protein Binding (% Free) Human [7] | IC50 [8] | IC50 [9] | IC50 [10] | Protein Binding (% Free) Mouse [11] | IC50 ([12]; Mus musculus, C2C12, C2C12 cells) | IC50 [13] | IC50 [14] | Intrinsic Clearance Human (CL-Hep) ([3]; CL-Hep, value in parentheses) | Intrinsic Clearance Mouse [5] | Intrinsic Clearance Mouse (CL-Hep) ([5]; CL-Hep, value in parentheses) | IC50 ([12]; C2C12 cells) | Structure (SMILES) |
| --- | --- | --- | --- | --- | --- | --- | --- | --- | --- | --- | --- | --- | --- | --- | --- | --- | --- | --- | --- | --- |
| 89.2 nM | 390 nM | 14 mL/min/kg | 46.7 mL/min/kg | 188 nM | < 32.9 mL/min/kg | < 49.5 mL/min/kg | 717 nM | 10.3 % Free | 36900 nM | > 100000 nM | < 5.1 nM | 8.52 % Free | 29.6 nM | 6930 nM | 498 nM |  |  |  |  | Cc1cc(-c2cnc3cc(-c4ccc(C5CNCCN5)cc4)ccn23)c2cc(F)ccc2n1 (centres unmarked) [Compound 17] |
| 16.4 nM | 386 nM |  |  | 231 nM |  |  | 456 nM | 7.33 % Free | 31400 nM | > 100000 nM | < 5.1 nM | 5.48 % Free |  | 6490 nM | 2680 nM | (12.4) mL/kg/min | <49.5 mL/min/kg | (<32.94) mL/kg/min | 34.9 nM | Cc1cc(-c2cnc3cc(-c4ccc(C5CNCCN5)cc4)ccn23)c2cc(F)ccc2n1 (centres unmarked) [Compound 18] |
| 72.1 nM | 113 nM | 17.5 mL/min/kg |  | 128 nM |  |  | 232 nM |  | 39300 nM | > 50000 nM | < 5.1 nM |  |  | 5200 nM | 388 nM |  |  |  |  | Cc1cc(-c2cnc3cc(-c4ccc(C5COCCN5)cc4)ccn23)c2cc(F)cc(F)c2n1 (centres unmarked) [Compound 22] |
